Patent publication US20120003655A1, “IDENTIFICATION OF NEUROPROTECTIVE AGENTS USING PRO-INFLAMMATORY HUMAN GLIAL CELLS” (The Salk Institute for Biological Studies, priority 2008, published 2012)
Entries after “also recorded” stand apart in the source; their conditions may differ.

What was measured:
primary human astrocytes = test: qPCR of IL1b-induced genes in primary human astrocytes; assay type: cell-based; conditions: 1 μM for 1 hour, then 10 ng/ml IL1b 6 hours; qPCR normalized against HPRT
Description: (§1) FIGS. 31A-F show indazol-estrogen suppression of the inflammation in human primary microglia and astrocytes. Primary human microglia (FIGS. 31A-C) and primary human atrocities (FIGS. 31D-E) were treated with Indazol-Estrogen-Bromide (Br), Indazol-Estrogen-Chloride (Cl), 17β-Estradiol (E2) or vehicle (ethanol:EtOH) for 1 hour followed by […] LPS stimulation for 6 hours (black column: 6 hr) or no LPS treatment (white column: Ohr). Normalized mRNA expression against HPRT of IL1β (FIG. 31A), IL23p19 (FIG. 31B), TGFβ (FIG. 31C) in microglia cells and BAFF (FIG. 31D), IL23p19 (FIG. 31E), iNOS (FIG. 31F) in astrocytes were determined using quantitative PCR. Primary human microglia and astrocytes were treated with 1 μM Indazol-Estrogen-Bromide (Br), 1 μM Indazol-Estrogen-Chloride (C1), 1 μM17β-Estradiol (E2) or vehicle (ethanol:EtOH) for 1 hour as a final concentration. Then microglia cells were stimulated with 0.1 μg/ml LPS and astrocytes were stimulated with 10 ng/ml IL1b for 6 hours. mRNA were purified and cDNA were generated by reverse transcriptase reaction. To determine the effect of ERβ-specific ligands in microglia and astrocytes-mediated inflammation, the activation of several genes induced by LPS in microglia or by IL1b in astrocytes were determined by QPCR normalized against HPRT.

[1] = test system: SOD^G37R mutated astrocyte cultures; test: Detection of ROS production in SOD1 G37R astrocytes after anti-oxidant treatment; assay type: cell-based, human; conditions: 48 hours treatment, vs vehicle (EtOH or DMSO); apocynin 300 μM, alpha lipoic acid 50 μg/mL, epicatechin 10 μM, luteolin 5 μM, resveratrol 5 μM
Description: Primary astrocyte culture. Human primary astrocytes (HA1800) were obtained from ScienCell Research Laboratories™ (Carlsbad, Calif.) and were cultured according to the providers' guidelines. Briefly, the astrocytes were isolated from fetal human brain (cerebral cortex) and cultured for no more than 15 passages in astrocyte media (AM 1801). The infections were performed in 80% confluent T75 flasks followed by incubation with the lentivirus expressing either the wild type of SOD1 (LV-SOD1^wT) or the mutated form of SOD1 (LV-SOD1^G37R).
Detection of ROS production. Detection of total cellular ROS was performed using the Image-iT LIVE Green reactive Oxygen Species Detection Kit, according to the manufacturer's directions (Molecular Probes, Invitrogen). Briefly, this assay is based on the principle that the live cell permeable compound, carboxy-H2DCFDA, emits a bright green fluorescence when it is oxidized in the presence of ROS. The quantification of the ROS production was addressed in 2 ways: 1) counting the number of fluorescent cells and 2) measuring the intensity of the fluorescence emitted by the cells. The relative fluorescence intensity (arbitrary units ranging from 0 to 255, or black to white) was measured in randomly selected fields for each treatment and was analyzed and quantified using ImageProPlus software.
Anti-oxidants treatment. Anti-oxidants stock solutions were diluted in astrocyte media and directly applied to astrocyte monolayers. The cultures were treated for 48 hours prior to reactive species of oxygen (ROS) detection. The compounds used in the experiment were epicatechin (E4018 Sigma Aldrich, 10 μM), luteolin (L9283 Sigma-Aldrich, 5 μM), resveratrol (R5010Sigma-Aldrich, 5 μM), apocynin (178385 Calbiochem, 300 μM), alpha lipoic acid (T5625, Sigma-Aldrich, 50 μg/mL). For neuronal co-cultures, the astrocytes were pre-treated for 48 hours with apocynin and the rosettes were plated on top of them. The co-cultures were carried for 3 more weeks and the medium containing apocynin was replaced three more times during the co-culture period.
A total of five compounds and their respective vehicles (ethanol (EtOH) or DMSO) were tested in SOD^G37R mutated astrocyte cultures to address their anti-oxidant potential (FIG. 4A).

primary human microglia = test: qPCR of LPS-induced genes in primary human microglia; assay type: cell-based; conditions: 1 μM for 1 hour, then 0.1 μg/ml LPS 6 hours; qPCR normalized against HPRT
Description: as §1

[2] = test system: HESC-derived motor neurons co-cultured with SOD1^G37R astrocytes; test: Co-culture of HESC-derived motor neurons with SOD1 astrocytes, quantification of ChAT-positive cells; assay type: cell-based, human; conditions: astrocytes pre-treated 48 hours with apocynin, co-culture 3 more weeks
Description: Culture conditions and differentiation of HESC. The HUES cells lines used in this study were HUES9 (Douglas Melton-WiCell) and Cythera 203 (Novocell Inc. San Diego, Calif.). The HESC were differentiated in vitro in motor neurons, adapting the protocol previously described elsewhere (Li et al., 2005). Briefly, the cells were manually dissociated to form embryoid bodies (EBs) and cultured in suspension for 5-6 days. The EBs were then plated in laminin/poli-ornithin coated plates in the presence of a neural induction medium consisting of F12/DMEM (Invitrogen, Carlsbad, Calif.), N2 supplement and 1 μM retinoic acid (RA). The cells started to organize into neural tube-like rosettes and, after 7-8 days in culture, sonic hedgehog (SHH, 500 ng/ml, R&D Systems) and cAMP (1 μM) were added to the culture media for 1 more week. The rosettes were then manually selected using a 10× magnifier (Zeiss) and gently dissociated (by pipetting up and down in a Hanks' enzyme free cell dissociation buffer-Invitrogene). After dissociation, rosettes were pelleted at 1,000 rpm and re-plated either on laminin/poli-ornithine coated coverslips (for direct differentiation) or on top of astrocyte feeder layers for the co-culture experiments. […]

| Structure (SMILES) | BAFF mRNA (primary human astrocytes) | IL23 (IL23p19) mRNA (primary human astrocytes) | iNOS mRNA (primary human astrocytes) | percentage of cells that were able to produce ROS (percentage of oxidation) [1] | also measured |
| --- | --- | --- | --- | --- | --- |
| C[C@]12CC[C@@H]3c4ccc(O)cc4CC[C@H]3[C@@H]1CC[C@@H]2O [Estradiol, 17β-Estradiol] | not | not | not |  |  |
| O=c1cc(-c2ccc(O)c(O)c2)oc2cc(O)cc(O)c12 [luteolin] |  |  |  | did not seem to have a detectable effect |  |
| Oc1ccc(-n2nc3ccc(O)cc3c2Cl)cc1 [Indazol-Cl] | repress | repress | repress |  | TGFβ mRNA (primary human microglia): do not repress; induction of IL1β mRNA (primary human microglia): repress; induction of IL23 (IL23p19) mRNA (primary human microglia): repress |
| Oc1ccc(C=Cc2cc(O)cc(O)c2)cc1 [resveratrol] |  |  |  | did not seem to have a detectable effect |  |
| Oc1ccc(-n2nc3ccc(O)cc3c2Br)cc1 [Indazol-Br] | repress | repress | repress |  | TGFβ mRNA (primary human microglia): do not repress; induction of IL1β mRNA (primary human microglia): repress; induction of IL23 (IL23p19) mRNA (primary human microglia): repress |
| COc1cc(C(C)=O)ccc1O [apocynin] |  |  |  | decreased the percentage of cells that were able to produce ROS; also recorded: decreased the ROS production | motor neuron survival (ChAT-positive cells) [2]: restored motor neuron survival; also recorded: recovery of motor neuron survival; motor neuron survival (ChAT-positive cells) ([2]; listed as Apocynin): rescued the motor neuron survival |
| O=C(O)CCCCC1CCSS1 (stereo not drawn) [alpha-lipoic acid, alpha lipoic acid] |  |  |  | decreased the percentage of cells that were able to produce ROS |  |
